Drawing on patent publication US6277871A, “Inhibitors of protein isoprenyl transferases” (Abbott Laboratories, priority 1999, dated 2001), this text covers inhibition for 6 compounds.

Molecules are shown by their SMILES.

The target in one experiment is T1, Rat brain protein farnesyltransferase (Rattus norvegicus, UniProt Q02293+Q04631).
T1 construct: Rat brain protein farnesyltransferase activity is measured; from tissue; host or cells: rat brain
T1 sequence (Q02293 whole entry, one chain of several): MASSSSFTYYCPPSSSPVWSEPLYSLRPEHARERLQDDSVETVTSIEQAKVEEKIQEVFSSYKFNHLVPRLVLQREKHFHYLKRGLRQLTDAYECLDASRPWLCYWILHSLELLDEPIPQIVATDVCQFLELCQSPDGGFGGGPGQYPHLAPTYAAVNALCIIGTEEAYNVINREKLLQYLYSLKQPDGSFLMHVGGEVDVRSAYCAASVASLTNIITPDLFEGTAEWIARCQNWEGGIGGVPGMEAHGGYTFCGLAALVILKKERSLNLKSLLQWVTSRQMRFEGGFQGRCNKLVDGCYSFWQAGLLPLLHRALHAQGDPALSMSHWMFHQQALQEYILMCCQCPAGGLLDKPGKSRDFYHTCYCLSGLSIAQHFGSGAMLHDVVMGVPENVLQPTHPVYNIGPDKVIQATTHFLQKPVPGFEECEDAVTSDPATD
As to the kind of experiment: in vitro inhibition of protein farnesyltransferase (Amersham scintillation proximity assay, biotin-K Ras B fragment substrate). Type of experiment: biochemical. The settings on record: 1 × 10^-7 M; protein farnesyltransferase; compared to uninhibited control; read-out: % inhibition at 1 × 10^-7 M. As for the experimental part: In addition, in vitro inhibition of protein farnesyltransferase may be measured by the following procedure. […] The enzyme is purified according to Reiss, Y., et al., Cell, 62: 81-88 (1990), hereby incorporated by reference, utilizing steps one through three. […]
The % inhibition of protein farnesyltransferase was determined for representative compounds of the invention.
For orientation: SPA uses beads or plates that emit light when radiolabelled molecules are held near them.
By inhibition is commonly meant the relative decrease from the control value, in per cent. As for `CSCC[C@H](NC(=O)C1=C(c2ccccc2C)CN(C(=O)OCCCC2CCCCC2)CC1)C(=O)O` [Example 1, N-4-[1-(3-cyclohexylpropyloxycarbonyl)-3-(2-methylphenyl)-1,2,5,6-tetrahydroisonicotinyl]methionine], the inhibition at 0.1 µM was found to be 100%.
On to `CSCC[C@H](NC(=O)C1=C(c2ccccc2C)CN(C(=O)C=Cc2cncs2)CC1)C(=O)O` [Example 2, N-4-[1-(3-[5-thiazolyl]acryloyl)-3-(2-methylphenyl)-1,2,5,6-tetrahydroisonicotinyl]methionine], for which the inhibition at 0.1 µM stood at 43%.
In the case of `CSCC[C@H](NC(=O)C1=C(c2ccccc2C)CN(C(=O)N(Cc2ccccc2)Cc2cncs2)CC1)C(=O)O` [Example 3, N-4-[1-(N'-benzyl-5-thiazolmethylaminocarbonyl)-3-(2-methylphenyl)-1,2,5,6-tetrahydroisonicotinyl]methionine], the inhibition at 0.1 µM is 100%.
Turning to `CSCC[C@H](NC(=O)C1=C(c2ccccc2C)CN(CCCc2ccccc2)CC1)C(=O)O` [Example 4, N-[N'-(3-phenylpropyl)-3-(2-methylphenyl)-1,2,5,6-tetrahydroisonicotinyl]methionine], the inhibition at 0.1 µM is 55%.

Staying with this experiment, now noted: read-out: % inhibition at 1 × 10^-7 M.
On to `CSCC[C@H](NC(=O)C1=C(c2ccccc2C)CN(C(=O)Cc2cccnc2)CC1)C(=O)O` [Example 5, N-[N'-(3-pyridylacetyl)-3-(2-methylphenyl)-1,2,5,6-tetrahydroisonicotinyl]methionine], for which the inhibition at 0.1 µM was found to be 94%.
Still for that read-out and setting: next, `CSCC[C@H](NC(=O)C1=C(c2ccccc2C)CN(S(=O)(=O)N(Cc2ccccc2)Cc2cncs2)CC1)C(=O)O` [Example 6, N-4-[1-(N'-benzyl-5-thiazolmethylaminosulfamoyl)-3-(2-methylphenyl)-1,2,5,6-tetrahydroisonicotinyl]methionine]: 90%.
